# Reference: patent US12479847B2 (DANA-FARBER CANCER INSTITUTE, INC., priority 2019, dated 2025)
# Legend:
# [1] = target: human LRRK2 kinase (Homo sapiens, UniProt Q5S007); conditions: LRRK2, ADP-Glo, ATP 10 μM, 60 minutes at 25° C.
# [2] = target: T1, panel of 468 kinases (Homo sapiens, UniProt Q9NQU5); experiment: KINOMEscan (ScanMAX) kinase profiling; assay type: binding; conditions: PAK6; 1 μM; read-out: % control
# T1 construct: purchased KINOMEscan (ScanMAX) service
# [3] = target: T2, panel of 468 kinases (Homo sapiens, UniProt Q9UM73, L1196M); experiment: KINOMEscan (ScanMAX) kinase profiling; assay type: binding; conditions: ALK(L1196M); 1 μM; read-out: % control
# T2 construct: purchased KINOMEscan (ScanMAX) service
# [4] = target: T3, panel of 468 kinases (Homo sapiens, UniProt Q86V86); experiment: KINOMEscan (ScanMAX) kinase profiling; assay type: binding; conditions: PIM3; 1 μM; read-out: % control
# T3 construct: purchased KINOMEscan (ScanMAX) service
# [5] = target: T4, panel of 468 kinases (Homo sapiens, UniProt Q8N4C8); experiment: KINOMEscan (ScanMAX) kinase profiling; assay type: binding; conditions: MINK; 1 μM; read-out: % control
# T4 construct: purchased KINOMEscan (ScanMAX) service
# T4 sequence (Q8N4C8 whole entry): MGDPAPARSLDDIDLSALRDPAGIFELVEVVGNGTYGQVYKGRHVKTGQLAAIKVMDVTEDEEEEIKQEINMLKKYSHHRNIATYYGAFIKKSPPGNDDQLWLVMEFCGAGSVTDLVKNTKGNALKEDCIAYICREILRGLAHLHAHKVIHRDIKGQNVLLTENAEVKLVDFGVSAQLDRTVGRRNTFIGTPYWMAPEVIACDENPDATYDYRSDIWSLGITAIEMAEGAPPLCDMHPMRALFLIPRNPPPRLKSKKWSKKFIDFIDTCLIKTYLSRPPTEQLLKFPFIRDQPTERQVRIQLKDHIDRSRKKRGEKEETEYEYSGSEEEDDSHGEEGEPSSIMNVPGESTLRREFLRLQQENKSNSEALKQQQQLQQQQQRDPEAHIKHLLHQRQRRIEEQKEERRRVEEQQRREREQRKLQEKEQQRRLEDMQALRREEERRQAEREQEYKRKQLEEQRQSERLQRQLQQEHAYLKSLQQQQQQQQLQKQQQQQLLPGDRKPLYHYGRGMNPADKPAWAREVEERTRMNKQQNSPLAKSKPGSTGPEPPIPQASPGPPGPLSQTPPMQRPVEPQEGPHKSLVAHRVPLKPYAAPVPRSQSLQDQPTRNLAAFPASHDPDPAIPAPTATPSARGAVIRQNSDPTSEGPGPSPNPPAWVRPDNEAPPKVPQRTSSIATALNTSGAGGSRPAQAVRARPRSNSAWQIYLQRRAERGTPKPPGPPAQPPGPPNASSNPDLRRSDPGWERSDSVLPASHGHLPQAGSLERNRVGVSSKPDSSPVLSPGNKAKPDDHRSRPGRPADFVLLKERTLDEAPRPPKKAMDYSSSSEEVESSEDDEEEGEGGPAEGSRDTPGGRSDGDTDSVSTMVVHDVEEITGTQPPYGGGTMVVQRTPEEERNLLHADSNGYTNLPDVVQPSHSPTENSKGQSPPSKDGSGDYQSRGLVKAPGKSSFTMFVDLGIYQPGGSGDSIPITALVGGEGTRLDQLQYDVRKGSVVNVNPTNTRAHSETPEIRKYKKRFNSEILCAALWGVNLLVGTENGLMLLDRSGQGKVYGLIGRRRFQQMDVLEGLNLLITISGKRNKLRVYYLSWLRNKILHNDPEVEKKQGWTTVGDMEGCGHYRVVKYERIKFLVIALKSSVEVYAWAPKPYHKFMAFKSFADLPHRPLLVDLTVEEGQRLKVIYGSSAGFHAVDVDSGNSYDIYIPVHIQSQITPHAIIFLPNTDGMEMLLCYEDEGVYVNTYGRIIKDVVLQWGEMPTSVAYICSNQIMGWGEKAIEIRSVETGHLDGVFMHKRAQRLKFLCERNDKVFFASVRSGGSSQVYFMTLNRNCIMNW
# [6] = target: T5, wild-type LRKK2 (Mus musculus, UniProt Q5S006); experiment: LRRK2 immunoblot, phosphorylation of Ser935, NIH-3T3 cell lysates; assay type: cell-based; conditions: FIG. 1
# T5 construct: endogenous in cells; host or cells: NIH-3T3
# Description: Cell lysates were extracted from the NIH-3T3 cell pellet using lysis buffer (40 mM Tris-HCl pH 8.0, 120 mM NaCl, 0.10% Nonidet™-P40) supplemented with protease inhibitors. Proteins in whole-cell lysates were separated by SDS-PAGE and transferred to an Amersham™ nitrocellulose membrane (Amersham, UK). Nitrocellulose membranes were blocked with 5% skim milk in phosphate-buffered saline containing Tween 20 and incubated with primary antibodies overnight at 4° C. The blots were then incubated with the appropriate horseradish peroxidase (HRP)-conjugated secondary antibodies and proteins were visualized by enhanced chemiluminescence, according to the manufacturer's protocol (Amersham™ Western blotting). Secondary antibodies, anti-rabbit IgG-HRP were purchased from Cell Signaling technology. Immunoblot film were scanned on a LAS500 scanner, and images were managed with Adobe Photoshop
# Sequence of human LRRK2 kinase (Q5S007 whole entry): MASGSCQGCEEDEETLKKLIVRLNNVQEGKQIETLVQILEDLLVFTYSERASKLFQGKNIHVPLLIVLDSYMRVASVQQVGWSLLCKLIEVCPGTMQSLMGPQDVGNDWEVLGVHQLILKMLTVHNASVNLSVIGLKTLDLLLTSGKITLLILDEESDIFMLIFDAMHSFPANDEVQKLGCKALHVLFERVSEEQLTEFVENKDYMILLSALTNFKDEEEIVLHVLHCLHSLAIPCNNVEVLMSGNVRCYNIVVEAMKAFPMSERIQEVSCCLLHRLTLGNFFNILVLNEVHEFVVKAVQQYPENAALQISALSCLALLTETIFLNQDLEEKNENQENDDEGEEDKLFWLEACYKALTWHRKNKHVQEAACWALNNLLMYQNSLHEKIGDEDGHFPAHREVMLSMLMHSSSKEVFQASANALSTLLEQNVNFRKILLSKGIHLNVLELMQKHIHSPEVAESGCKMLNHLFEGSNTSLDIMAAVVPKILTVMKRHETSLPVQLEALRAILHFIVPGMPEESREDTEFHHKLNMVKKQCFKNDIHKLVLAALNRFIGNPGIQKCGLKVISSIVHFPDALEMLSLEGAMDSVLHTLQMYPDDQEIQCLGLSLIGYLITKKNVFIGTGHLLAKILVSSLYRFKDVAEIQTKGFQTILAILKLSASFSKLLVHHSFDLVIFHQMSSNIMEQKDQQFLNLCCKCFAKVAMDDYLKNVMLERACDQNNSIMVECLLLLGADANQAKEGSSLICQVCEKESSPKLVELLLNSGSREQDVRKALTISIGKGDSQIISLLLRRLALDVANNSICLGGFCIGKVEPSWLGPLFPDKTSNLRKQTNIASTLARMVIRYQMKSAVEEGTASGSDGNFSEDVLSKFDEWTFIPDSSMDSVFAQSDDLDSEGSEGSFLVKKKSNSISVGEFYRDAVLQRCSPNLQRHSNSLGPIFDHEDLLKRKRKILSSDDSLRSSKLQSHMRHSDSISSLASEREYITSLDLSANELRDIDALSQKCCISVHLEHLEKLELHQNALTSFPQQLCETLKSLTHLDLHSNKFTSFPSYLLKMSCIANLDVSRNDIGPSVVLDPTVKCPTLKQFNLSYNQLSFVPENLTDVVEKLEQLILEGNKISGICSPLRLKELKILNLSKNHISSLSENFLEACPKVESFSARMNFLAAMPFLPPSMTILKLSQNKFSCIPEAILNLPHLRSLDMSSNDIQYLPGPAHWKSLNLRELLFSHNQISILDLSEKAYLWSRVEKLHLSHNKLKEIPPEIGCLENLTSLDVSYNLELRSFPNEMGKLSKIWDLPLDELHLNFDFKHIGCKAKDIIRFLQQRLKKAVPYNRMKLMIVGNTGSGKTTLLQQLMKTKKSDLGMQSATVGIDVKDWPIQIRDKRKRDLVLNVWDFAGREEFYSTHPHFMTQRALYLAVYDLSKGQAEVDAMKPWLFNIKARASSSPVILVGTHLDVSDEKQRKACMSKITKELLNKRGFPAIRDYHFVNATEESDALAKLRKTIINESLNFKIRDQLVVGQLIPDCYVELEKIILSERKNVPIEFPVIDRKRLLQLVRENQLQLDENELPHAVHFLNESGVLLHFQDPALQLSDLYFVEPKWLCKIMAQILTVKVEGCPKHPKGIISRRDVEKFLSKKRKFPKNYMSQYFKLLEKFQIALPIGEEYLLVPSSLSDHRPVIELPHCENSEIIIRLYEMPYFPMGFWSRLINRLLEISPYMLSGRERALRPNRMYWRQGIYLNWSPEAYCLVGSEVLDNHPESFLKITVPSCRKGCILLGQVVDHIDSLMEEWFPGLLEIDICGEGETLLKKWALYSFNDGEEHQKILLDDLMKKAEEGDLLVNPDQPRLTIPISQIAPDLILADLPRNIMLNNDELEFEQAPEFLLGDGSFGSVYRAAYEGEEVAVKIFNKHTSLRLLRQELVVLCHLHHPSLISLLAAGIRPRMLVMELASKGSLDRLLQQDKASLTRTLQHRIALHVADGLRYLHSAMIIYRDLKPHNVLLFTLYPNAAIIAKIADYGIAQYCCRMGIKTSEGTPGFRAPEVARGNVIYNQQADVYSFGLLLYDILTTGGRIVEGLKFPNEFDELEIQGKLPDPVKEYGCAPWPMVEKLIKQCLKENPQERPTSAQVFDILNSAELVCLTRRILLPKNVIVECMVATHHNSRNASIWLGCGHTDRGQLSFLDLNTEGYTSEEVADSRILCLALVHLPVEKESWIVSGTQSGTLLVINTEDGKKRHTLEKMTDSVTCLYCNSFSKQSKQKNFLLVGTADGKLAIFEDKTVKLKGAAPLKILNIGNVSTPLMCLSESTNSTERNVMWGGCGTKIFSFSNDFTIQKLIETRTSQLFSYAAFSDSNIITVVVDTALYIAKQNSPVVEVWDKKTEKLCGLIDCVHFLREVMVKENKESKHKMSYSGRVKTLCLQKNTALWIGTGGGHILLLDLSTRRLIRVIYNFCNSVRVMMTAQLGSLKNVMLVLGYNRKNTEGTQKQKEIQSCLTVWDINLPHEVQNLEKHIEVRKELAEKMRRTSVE
# T1 sequence (Q9NQU5 whole entry): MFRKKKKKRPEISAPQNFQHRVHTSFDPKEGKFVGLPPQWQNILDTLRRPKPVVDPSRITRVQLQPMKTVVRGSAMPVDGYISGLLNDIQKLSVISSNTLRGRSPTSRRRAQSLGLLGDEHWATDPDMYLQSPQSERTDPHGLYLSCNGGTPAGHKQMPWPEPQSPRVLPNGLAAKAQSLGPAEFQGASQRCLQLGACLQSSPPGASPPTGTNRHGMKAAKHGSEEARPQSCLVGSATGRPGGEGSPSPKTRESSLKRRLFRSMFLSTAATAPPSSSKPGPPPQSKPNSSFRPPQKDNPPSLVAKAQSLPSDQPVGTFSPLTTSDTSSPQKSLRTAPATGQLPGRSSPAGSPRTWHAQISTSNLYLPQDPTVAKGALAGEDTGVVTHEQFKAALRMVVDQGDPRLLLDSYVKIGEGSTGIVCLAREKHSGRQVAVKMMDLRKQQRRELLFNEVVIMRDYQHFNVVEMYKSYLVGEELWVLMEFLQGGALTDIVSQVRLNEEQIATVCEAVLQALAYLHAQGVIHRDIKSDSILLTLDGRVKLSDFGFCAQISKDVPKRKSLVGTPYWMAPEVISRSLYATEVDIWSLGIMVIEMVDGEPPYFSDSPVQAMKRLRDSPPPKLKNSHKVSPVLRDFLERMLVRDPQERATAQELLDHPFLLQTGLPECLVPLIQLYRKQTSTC
SMILES,IC50 [1] [nM],remaining binding at 1 µM [2] [%],remaining binding at 1 µM [3] [%],remaining binding at 1 µM [4] [%],remaining binding at 1 µM [5] [%],inhibition of the phosphorylation of Ser935 in wild-type LRKK2 [6]
"CNc1nc(Nc2ccc(S(=O)(=O)N3CCC(N4CCOCC4)CC3)cc2OC)nc2[nH]cc(Cl)c12 [Compound 12, 5-chloro-N2-(2-methoxy-4-((4-morpholinopiperidin-1-yl)sulfonyl)phenyl)-N4-methyl-7H-pyrrolo[2,3-d]pyrimidine-2,4-diamine]",< 10,100,11,100,75,–
"CNc1nc(Nc2ccc(C(=O)N3CCC(N4CCOCC4)CC3)c3c2OCO3)nc2[nH]cc(Cl)c12 [Compound 75, (7-((5-chloro-4-(methylamino)-7H-pyrrolo[2,3-d]pyrimidin-2-yl)amino)benzo[d][1,3]dioxol-4-yl)(4-morpholinopiperidin-1-yl)methanone]",< 10,100,27,100,18,–
"CNc1nc(Nc2ccc(P3(=O)CCN(C4CCOCC4)CC3)cc2OC)nc2[nH]cc(Cl)c12 [Compound 77, 4-(4-((5-chloro-4-(methylamino)-7H-pyrrolo[2,3-d]pyrimidin-2-yl)amino)-3-methoxyphenyl)-1-(tetrahydro-2H-pyran-4-yl)-1,4-azaphosphinane 4-oxide]",< 10,95,7.1,100,63,inhibited the phosphorylation of Ser935 in wild-type LRKK2 with potency similar to known LRRK2 inhibitor LRRK2-IN-1
